US20250049035A1, “MICROBIOCIDAL BICYCLE HETEROCYCLIC DERIVATIVES” (SYNGENTA CROP PROTECTION AG, priority 2021, published 2025)

Experiments:
Alternaria solani = Alternaria solani / tomato / leaf disc (early blight); type: in vivo; conditions: foliar, tomato leaf disks cv. Baby, inoculated 2 days after application, assessed 5-7 days after application, compared to untreated control
Method: Example B1: Alternaria solani/Tomato/Leaf Disc (Early Blight) Tomato leaf disks cv. Baby are placed on agar in multiwell plates (24-well format) and sprayed with the formulated test compound diluted in water. The leaf disks are inoculated with a spore suspension of the fungus 2 days after application. The inoculated leaf disks are incubated at 23° C./21° C.

[1] = system: Botryotinia fuckeliana (Botrytis cinerea); experiment: Botryotinia fuckeliana (Botrytis cinerea) / liquid culture (gray mould); type: cell-based; conditions: liquid culture (Vogels broth), growth inhibition photometrically 3-4 days after application, compared to untreated control
Method: Example B2: Botryotinia fuckeliana (Botrytis cinerea)/Liquid Culture (Gray Mould) Conidia of the fungus from cryogenic storage are directly mixed into a nutrient broth (Vogels broth). After placing a DMSO solution of test compound into a microtiter plate (96-well format), the nutrient broth containing the fungal spores is added. The test plates are incubated at 24° C. and the inhibition of growth is determined photometrically 3-4 days after application.

[2] = system: Glomerella lagenarium (Colletotrichum lagenarium); experiment: Glomerella lagenarium (Colletotrichum lagenarium) / liquid culture (anthracnose); type: cell-based; conditions: Colletotrichum orbiculare, liquid culture (potato dextrose broth), growth inhibition photometrically 3-4 days after application, compared to untreated control
Method: Example B3: Glomerella lagenarium (Colletotrichum lagenarium)/Liquid Culture (Anthracnose) Conidia of the fungus from cryogenic storage are directly mixed into a nutrient broth (potato dextrose broth). After placing a DMSO solution of test compound into a microtiter plate (96-well format), the nutrient broth containing the fungal spores is added. The test plates are incubated at 24° C. and the inhibition of growth is measured photometrically 3-4 days after application.

[3] = system: Blumeria graminis f. sp. tritici (Erysiphe graminis f. sp. tritici); experiment: Blumeria graminis f. sp. tritici / wheat / leaf disc preventative (powdery mildew); type: in vivo; conditions: foliar, wheat leaf segments cv. Kanzler, inoculated 1 day after application, assessed 6-8 days after application, compared to untreated control
Method: Example B4: Blumeria graminis f. sp. tritici (Erysiphe graminis f. sp. tritici)/Wheat/Leaf Disc Preventative (Powdery Mildew on Wheat) Wheat leaf segments cv. Kanzler are placed on agar in a multiwell plate (24-well format) and sprayed with the formulated test compound diluted in water. The leaf disks are inoculated by shaking powdery mildew infected plants above the test plates 1 day after application. The inoculated leaf disks are incubated at 20° C. and 60% relative humidity under a light regime of 24 h darkness followed by 12 h light/12 h darkness in a climate chamber and the activity of a compound is assessed as percent disease control compared to untreated when an appropriate level of disease damage appears on untreated check leaf segments (6-8 days after application).

Fusarium culmorum = experiment: microbe, parasite or virus in culture; type: cell-based; conditions: read-out: control of Fusarium culmorum
[4] = system: Phaeosphaeria nodorum (Septoria nodorum); experiment: Phaeosphaeria nodorum (Septoria nodorum) / wheat / leaf disc preventative (glume blotch); type: in vivo; conditions: Parastagonospora nodorum, foliar, wheat leaf segments cv. Kanzler, inoculated 2 days after application, assessed 5-7 days after application, compared to untreated control
Method: Example B8: Phaeosphaeria Nodorum (Septoria nodorum)/Wheat/Leaf Disc Preventative (Glume Blotch) Wheat leaf segments cv. Kanzler are placed on agar in a multiwell plate (24-well format) and sprayed with the formulated test compound diluted in water. The leaf disks are inoculated with a spore suspension of the fungus 2 days after application. The inoculated test leaf disks are incubated at 20° C. and 75% relative humidity under a light regime of 12 h light/12 h darkness in a climate cabinet and the activity of a compound is assessed as percent disease control compared to untreated when an appropriate level of disease damage appears in untreated check leaf disks (5-7 days after application).

[5] = system: Mycosphaerella arachidis (Cercospora arachidicola); experiment: Mycosphaerella arachidis (Cercospora arachidicola) / liquid culture (early leaf spot); type: cell-based; conditions: liquid culture (potato dextrose broth), growth inhibition photometrically 4-5 days after application, compared to untreated control
Method: Example B10: Mycosphaerella arachidis (Cercospora arachidicola)/Liquid Culture (Early Leaf Spot) Conidia of the fungus from cryogenic storage are directly mixed into a nutrient broth (potato dextrose broth) After placing a DMSO solution of test compound into a microtiter plate (96-well format), the nutrient broth containing the fungal spores is added. The test plates are incubated at 24° C. and the inhibition of growth is determined photometrically 4-5 days after application.

Pyrenophora teres = Pyrenophora teres / barley / leaf disc preventative (net blotch); type: in vivo; conditions: foliar, barley leaf segments cv. Hasso, inoculated 2 days after application, assessed 5-7 days after application, compared to untreated control
Method: Example B12: Pyrenophora teres/Barley/Leaf Disc Preventative (Net Blotch) Barley leaf segments cv. Hasso are placed on agar in a multiwell plate (24-well format) and sprayed with the formulated test compound diluted in water. The leaf segments are inoculated with a spore suspension of the fungus 2 days after application. The inoculated leaf segments are incubated at 20° C. and 65% relative humidity under a light regime of 12 h light/12 h darkness in a climate cabinet and the activity of a compound is assessed as disease control compared to untreated when an appropriate level of disease damage appears in untreated check leaf segments (5-7 days after application).

Sclerotinia sclerotiorum = Sclerotinia sclerotiorum / liquid culture (cottony rot); type: cell-based; conditions: liquid culture (potato dextrose broth), growth inhibition photometrically 3-4 days after application, compared to untreated control
Method: Example B14: Sclerotinia sclerotiorum/Liquid Culture (Cottony Rot) Mycelia fragments of a newly grown liquid culture of the fungus are directly mixed into a nutrient broth (potato dextrose broth). After placing a DMSO solution of test compound into a microtiter plate (96-well format) the nutrient broth containing the fungal material is added. The test plates are incubated at 24° C. and the inhibition of growth is determined photometrically 3-4 days after application.

[6] = system: Mycosphaerella graminicola (Septoria tritici); experiment: Mycosphaerella graminicola (Septoria tritici) / liquid culture (Septoria blotch); type: cell-based; conditions: Zymoseptoria tritici, liquid culture (potato dextrose broth), growth inhibition photometrically 4-5 days after application, compared to untreated control
Method: Example B15: Mycosphaerella graminicola (Septoria tritici/Liquid Culture (Septoria Blotch) Conidia of the fungus from cryogenic storage are directly mixed into a nutrient broth (potato dextrose broth). After placing a DMSO solution of test compound into a microtiter plate (96-well format), the nutrient broth containing the fungal spores is added. The test plates are incubated at 24° C. and the inhibition of growth is determined photometrically 4-5 days after application.

[7] = system: Monographella nivalis (Microdochium nivale); experiment: Monographella nivalis (Microdochium nivale) / liquid culture (foot rot cereals); type: cell-based; conditions: liquid culture (potato dextrose broth), growth inhibition photometrically 4-5 days after application, compared to untreated control
Method: Example B9: Monographella nivalis (Microdochium nivale)/Liquid Culture (Foot Rot Cereals) Conidia of the fungus from cryogenic storage are directly mixed into a nutrient broth (potato dextrose broth). After placing a DMSO solution of test compound into a microtiter plate (96-well format), the nutrient broth containing the fungal spores is added. The test plates are incubated at 24° C. and the inhibition of growth is determined photometrically 4-5 days after application.

C[C@H]1c2sccc2[C@@H](c2cnn(C)c2)CN1C(=O)c1cc(-c2ccc(F)cc2F)on1 (racemic) [Compound P-14, [5-(2,4-difluorophenyl)isoxazol-3-yl]-[rac-(4R,7S)-7-methyl-4-(1-methylpyrazol-4-yl)-5,7-dihydro-4H-thieno[2,3-c]pyridin-6-yl]methanone]
≥ 80%: pest or weed control at 200 ppm (Alternaria solani) | inhibition of growth at 20 ppm [1] | inhibition of growth at 20 ppm [2] | pest or weed control at 200 ppm [3] | inhibition of growth at 20 ppm (Fusarium culmorum) | pest or weed control at 200 ppm [4] | inhibition of growth at 20 ppm [5] | pest or weed control at 200 ppm (Pyrenophora teres) | inhibition of growth at 20 ppm (Sclerotinia sclerotiorum) | inhibition of growth at 20 ppm [6]

C[C@H]1c2sccc2[C@@H](c2cnn(C)c2)CN1C(=O)c1nnc(-c2ccc(F)cc2F)s1 (racemic) [Compound P-15, [5-(2,4-difluorophenyl)-1,3,4-thiadiazol-2-yl]-[rac-(4R,7S)-7-methyl-4-(1-methylpyrazol-4-yl)-5,7-dihydro-4H-thieno[2,3-c]pyridin-6-yl]methanone]
≥ 80%: pest or weed control at 200 ppm (Alternaria solani) | inhibition of growth at 20 ppm [1] | inhibition of growth at 20 ppm [2] | pest or weed control at 200 ppm [3] | inhibition of growth at 20 ppm (Fusarium culmorum) | pest or weed control at 200 ppm [4] | inhibition of growth at 20 ppm [5] | pest or weed control at 200 ppm (Pyrenophora teres) | inhibition of growth at 20 ppm [6]

Cc1c([C@H]2CN(C(=O)c3cc(-c4ccc(F)cc4F)on3)Cc3ccsc32)cnn1C [Compound P-3, [5-(2,4-difluorophenyl)isoxazol-3-yl]-[(7S)-7-(1,5-dimethylpyrazol-4-yl)-6,7-dihydro-4H-thieno[3,2-c]pyridin-5-yl]methanone]
≥ 80%: pest or weed control at 200 ppm (Alternaria solani) | inhibition of growth at 20 ppm [1] | inhibition of growth at 20 ppm [2] | pest or weed control at 200 ppm [3] | inhibition of growth at 20 ppm (Fusarium culmorum) | pest or weed control at 200 ppm [4] | inhibition of growth at 20 ppm [7] | pest or weed control at 200 ppm (Pyrenophora teres) | inhibition of growth at 20 ppm (Sclerotinia sclerotiorum) | inhibition of growth at 20 ppm [6]

Cc1c(C2CN(C(=O)c3nnc(-c4ccc(F)cc4F)s3)Cc3ccsc32)cnn1C (stereo not shown) [Compound P-7, [5-(2,4-difluorophenyl)-1,3,4-thiadiazol-2-yl]-[7-(1,5-dimethylpyrazol-4-yl)-6,7-dihydro-4H-thieno[3,2-c]pyridin-5-yl]methanone]
≥ 80%: inhibition of growth at 20 ppm [1] | inhibition of growth at 20 ppm [2] | pest or weed control at 200 ppm [3] | inhibition of growth at 20 ppm (Fusarium culmorum) | inhibition of growth at 20 ppm [7] | inhibition of growth at 20 ppm [5] | inhibition of growth at 20 ppm (Sclerotinia sclerotiorum) | inhibition of growth at 20 ppm [6]

Cn1cc(C2CN(C(=O)c3nnc(-c4ccc(F)cc4F)s3)Cc3sccc32)cn1 (stereo not shown) [Compound P-24, [5-(2,4-difluorophenyl)-1,3,4-thiadiazol-2-yl]-[4-(1-methylpyrazol-4-yl)-5,7-dihydro-4H-thieno[2,3-c]pyridin-6-yl]methanone]
≥ 80%: pest or weed control at 200 ppm (Alternaria solani) | inhibition of growth at 20 ppm [1] | inhibition of growth at 20 ppm [2] | inhibition of growth at 20 ppm (Fusarium culmorum) | pest or weed control at 200 ppm [4] | inhibition of growth at 20 ppm [7] | inhibition of growth at 20 ppm [5] | pest or weed control at 200 ppm (Pyrenophora teres) | inhibition of growth at 20 ppm (Sclerotinia sclerotiorum) | inhibition of growth at 20 ppm [6]

Cc1c(C2CN(C(=O)c3nnc(-c4ccc(F)cc4F)s3)Cc3sccc32)cnn1C (stereo not shown) [Compound P-25, [5-(2,4-difluorophenyl)-1,3,4-thiadiazol-2-yl]-[4-(1,5-dimethylpyrazol-4-yl)-5,7-dihydro-4H-thieno[2,3-c]pyridin-6-yl]methanone]
≥ 80%: pest or weed control at 200 ppm (Alternaria solani) | inhibition of growth at 20 ppm [1] | inhibition of growth at 20 ppm [2] | pest or weed control at 200 ppm [3] | inhibition of growth at 20 ppm (Fusarium culmorum) | pest or weed control at 200 ppm [4] | inhibition of growth at 20 ppm [7] | pest or weed control at 200 ppm (Pyrenophora teres) | inhibition of growth at 20 ppm (Sclerotinia sclerotiorum) | inhibition of growth at 20 ppm [6]

Cc1c(C2CN(C(=O)c3cc(-c4ccccc4F)on3)Cc3ccsc32)cnn1C (stereo not shown) [Compound P-34, [7-(1,5-dimethylpyrazol-4-yl)-6,7-dihydro-4H-thieno[3,2-c]pyridin-5-yl]-[5-(2-fluorophenyl)isoxazol-3-yl]methanone]
≥ 80%: pest or weed control at 200 ppm (Alternaria solani) | inhibition of growth at 20 ppm [1] | inhibition of growth at 20 ppm [2] | inhibition of growth at 20 ppm (Fusarium culmorum) | pest or weed control at 200 ppm [4] | inhibition of growth at 20 ppm [7] | inhibition of growth at 20 ppm [5] | pest or weed control at 200 ppm (Pyrenophora teres) | inhibition of growth at 20 ppm (Sclerotinia sclerotiorum) | inhibition of growth at 20 ppm [6]
